Assay results from paper PMC7050258, “Inhibition of MGAT2 modulates fat‐induced gut peptide release and fat intake in normal mice and ameliorates obesity and diabetes in ob/ob mice fed on a high‐fat diet” (FEBS Open Bio, 2020).
“And” between values parts separate entries of the source, which are not always exact repeats. Identical values can stand only once.

How the values were obtained:
[1] = system: HFD-fed ob/ob mice; experiment: HFD-fed ob/ob mice study; type: in vivo, mouse
Protocol: Male ob/ob mice were fed an HFD (D12451; Research Diets, Inc.) from 8 weeks of age to the end of the study. After 2 weeks of HFD feeding, the mice were divided into groups based on their body weight, food intake, glycated hemoglobin (GHb), and plasma biochemical parameters. […] Compounds were suspended in 0.5% methylcellulose. Body weight and food intake were monitored during the study. On day 34, blood was collected and GHb and plasma biochemical parameters were measured. In addition, body composition was analyzed by EchoMRI‐900 (Hitachi Aloka Medical, Ltd., Tokyo, Japan). On day 36, the mice in the vehicle‐ and CpdB‐treated group were individually placed in the metabolic chamber of an Oxymax system (Columbus Instruments, Columbus, OH, USA). After 3 h of adaptation, oxygen consumption (VO2) and carbon dioxide production (VCO2) were analyzed for 22 h (from 13:00 to 11:00). During the measurement, dosing of vehicle or CpdB was performed at 18:00. Respiratory quotient (RQ) and energy expenditure (EE) were calculated with the following formulas: RQ=VCO2/VO2 EEkcal/h=3.815+1.232×VCO2/VO2×VO2
Blood samples were collected from the tail or facial vein without anesthesia and centrifuged at 1500 g for 10 min at 4 °C to isolate the plasma. To prevent degradation of incretin hormone, blood samples were treated with not only heparin/aprotinin but also a dipeptidyl peptidase‐4 (DPP‐4) inhibitor. Plasma alanine aminotransferase […] levels were measured by an Autoanalyzer 7180 (Hitachi High‐Technologies Corporation, Tokyo, Japan). GHb was measured with an automated GHb analyzer (HLC‐723G8; Tosoh, Tokyo, Japan). Plasma insulin was measured with an ELISA kit (Shibayagi Co., Ltd., Gunma, Japan). Plasma levels of total GLP‐1 and total PYY were also measured with an ELISA kit (Wako Pure Chemicals).

[2] = system: rats fed a 35% fat diet; parameters: method as in PMID 25857225; conditions: cited from earlier work
[3] = system: C57BL/6J mice; experiment: Food choice test (HFD vs LFD); type: in vivo, mouse; conditions: overnight, CpdB 10 mg/kg oral, liraglutide 0.04 mg/kg sc
Protocol: The choice between HFD (D12451; Research Diets, Inc.) and low‐fat diet (LFD, 10% kcal fat, 3.8 kcal·g^−1; D124510B; Research Diets, Inc.) was assessed in C57BL/6J mice. Following habituation to normal chow, HFD and LFD were presented in separate containers simultaneously, and overnight food intake of each diet was monitored. The mice were divided into groups based on the data of food intake and body weight. Then, vehicle or CpdB (10 mg·kg^−1) was orally administered, and the overnight food intake of each diet was monitored. CpdB was suspended in 0.5% methylcellulose. As a positive control, liraglutide (0.04 mg·kg^−1) dissolved in 10% DMSO/saline was subcutaneously administered.

[4] = system: rats; parameters: method as in PMID 22301859; conditions: cited from earlier work
[5] = CpdB 30 mg/kg, pioglitazone 3 mg/kg oral once daily, mean
[6] = CpdB 30 mg/kg, pioglitazone 3 mg/kg oral once daily, single animal values
[7] = EchoMRI, day 34, CpdB 30 mg/kg, pioglitazone 3 mg/kg, mean
[8] = EchoMRI, day 34, CpdB 30 mg/kg, pioglitazone 3 mg/kg, single animal values
[9] = day 34, CpdB 30 mg/kg, pioglitazone 3 mg/kg oral once daily, mean ± SD, n=8

Molecule: CCc1ccc(CCOc2ccc(CC3SC(=O)NC3=O)cc2)nc1 (stereo not shown) [Pioglitazone, pioglitazone, reference compound]
- Body weight change from initial, AVE [1, 5]: 30.48%
- Cumulative food intake, AVE [1, 5]: 136.37 g
- Body weight change from initial, individual animal [1, 6]: 29.04% and 29.60% and 25.91% and 30.72% and 29.56% and 32.63% and 37.29%
- Cumulative food intake, individual animal [1, 6]: 144.84 g and 134.34 g and 122.14 g and 143.74 g and 138.07 g and 136.64 g and 133.11 g and 138.10 g
- Body composition, Fat, AVE [1, 7]: 63.35%
- Body composition, Lean, AVE [1, 7]: 36.65%
- Body composition, Fat, individual animal [1, 8]: 62.74% and 63.31% and 66.38% and 62.25% and 63.50% and 61.77% and 61.53% and 65.34%
- Body composition, Lean, individual animal [1, 8]: 33.62% and 37.75% and 36.50% and 38.23% and 38.47% and 37.26% and 36.69%
- GHb, Pre ([1]; before dosing, mean ± SD, n=8): 5.9 ± 0.3%
- Plasma AST, Pre ([1]; before dosing, mean ± SD, n=8): 314 ± 61 U·L^−1
- Plasma insulin, Pre ([1]; before dosing, mean ± SD, n=8): 103 ± 29 ng/mL
- ΔGHb, AVE ([1]; change 34 days after repeated dosing, CpdB 30 mg/kg, pioglitazone 3 mg/kg oral once daily, mean): -1.01%
- ΔGHb, individual animal ([1]; change 34 days after repeated dosing, CpdB 30 mg/kg, pioglitazone 3 mg/kg, single animal values): -1.00% and -0.90% and -1.10% and -1.40% and -0.70% and -0.80%
- GHb, Post [1, 9]: 4.9 ± 0.4 %
- Plasma ALT, Post [1, 9]: 803 ± 132 U·L^−1
- Plasma AST, Post [1, 9]: 733 ± 174 U·L^−1
- Plasma insulin, Post ([1]; day 34, CpdB 30 mg/kg, pioglitazone 3 mg/kg oral once daily, nonfasting, mean ± SD, n=8): 30.8 ± 16 ng/mL

Molecule: CC(C)(C)c1cc(C(C)(C)C)nc(N2CCn3c(nnc3-c3ccc(OC(F)(F)F)cc3)C2)n1 [JTP‐103237]
- increase of plasma levels of PYY after lipid loading [2]: enhance the increase

Molecule: Liraglutide
- Food intake, energy intake of HFD, AVE ([3]; mean, N=5): 6.46 kcal
- Food intake, energy intake of low-fat diet, AVE ([3]; mean, N=5): 0.24 kcal
- Food intake, total energy intake, AVE ([3]; mean, N=5): 6.69 kcal
- Food intake, energy intake of HFD, individual animal ([3]; single animal values): 6.02 kcal and 8.08 kcal and 6.16 kcal and 4.18 kcal and 7.85 kcal
- Food intake, energy intake of low-fat diet, individual animal ([3]; single animal values): 0.00 kcal and 0.19 kcal and 0.34 kcal and 0.27 kcal and 0.38 kcal
- Food intake, total energy intake, individual animal ([3]; single animal values): 6.02 kcal and 8.27 kcal and 6.50 kcal and 4.45 kcal and 8.23 kcal
- intake of highly palatable diet [4]: predominantly reduce the intake of highly palatable diet
